Results taken from PubChem BioAssay (NCI).
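1) Cells in 96-well plates. 2) Compound, 48 h, 5 concentrations. 3) Linear interpolation between surrounding doses. 4) Unreached endpoint = highest concentration. Abbreviation: GI50, concentration required for 50% inhibition of growth. TGI: concentration producing complete growth inhibition.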

Assays:
Assay in all cases: NCI anticancer screen, dose series, 48 h
[1] = test system: HS 578T breast
[2] = test system: DU-145 prostate
[3] = test system: MCF7 breast
[4] = test system: BT-549 breast
[5] = test system: HOP-92 NSCLC
[6] = test system: SN12C renal
[7] = test system: MDA-MB-231 breast
[8] = test system: SF-539 CNS
[9] = test system: RPMI-8226 leukemia
[10] = test system: MDA-MB-435
[11] = test system: OVCAR-5 ovarian
[12] = test system: EKVX NSCLC
[13] = test system: NCI-H522 lung
[14] = test system: SF-295 CNS
[15] = test system: LOX IMVI melanoma
[16] = test system: PC-3 prostate
[17] = test system: UO-31 renal
[18] = test system: HL-60(TB) leukemia
[19] = test system: SK-OV-3 ovarian
[20] = test system: SR leukemia
[21] = test system: SF-268 CNS
[22] = test system: TK-10 renal
[23] = test system: OVCAR-4 ovarian
[24] = test system: HT29 colon
[25] = test system: A549 NSCLC
[26] = test system: OVCAR-3 ovarian
[27] = test system: HCC-2998 colon
[28] = test system: NCI-H460 lung
[29] = test system: U251 CNS
[30] = test system: UACC-257 melanoma
[31] = test system: CCRF-CEM leukemia
[32] = test system: M14 melanoma
[33] = test system: SW-620 colon
[34] = test system: NCI-H226 lung
[35] = test system: HOP-62 NSCLC
[36] = test system: NCI-H23 lung
[37] = test system: MALME-3M melanoma
[38] = test system: CAKI-1 renal
[39] = test system: SNB-75 CNS
[40] = test system: SK-MEL-2 melanoma
[41] = test system: UACC-62 melanoma
[42] = test system: 786-0 renal
[43] = test system: OVCAR-8 ovarian
[44] = test system: SNB-19 CNS
[45] = test system: NCI/ADR-RES ovarian
[46] = test system: ACHN renal
[47] = test system: HCT-15 colon
[48] = test system: MOLT-4 leukemia
[49] = test system: HCT-116 colon
[50] = test system: T-47D breast
[51] = test system: SK-MEL-5 melanoma
[52] = test system: COLO 205 colon
[53] = test system: KM12 colon
[54] = test system: IGROV1 ovarian
[55] = test system: SK-MEL-28 melanoma
[56] = test system: K-562 leukemia
[57] = test system: A498 renal
[58] = test system: RXF 393 renal

O=c1n(-c2ccccc2)c(=O)n2n1C1C=CC2CCCCCC1
TGI [1]: > 100 µM | TGI [2]: > 100 µM | TGI [3]: > 100 µM | TGI [4]: > 100 µM | TGI [5]: > 100 µM | TGI [6]: > 100 µM | TGI [7]: > 100 µM | TGI [8]: > 100 µM | TGI [9]: > 100 µM | TGI [10]: > 100 µM | TGI [11]: > 100 µM | TGI [12]: > 100 µM | TGI [13]: > 100 µM | TGI [14]: > 100 µM | TGI [15]: > 100 µM | TGI [16]: > 100 µM | TGI [17]: > 100 µM | TGI [18]: > 100 µM | TGI [19]: > 100 µM | TGI [20]: > 100 µM | TGI [21]: > 100 µM | TGI [22]: > 100 µM | TGI [23]: > 100 µM | TGI [24]: > 100 µM | TGI [25]: > 100 µM | TGI [26]: > 100 µM | TGI [27]: > 100 µM | TGI [28]: > 100 µM | TGI [29]: > 100 µM | TGI [30]: > 100 µM | TGI [31]: > 100 µM | TGI [32]: > 100 µM | TGI [33]: > 100 µM | TGI [34]: > 100 µM | TGI [35]: > 100 µM | TGI [36]: > 100 µM | TGI [37]: > 100 µM | TGI [38]: > 100 µM | TGI [39]: > 100 µM | TGI [40]: > 100 µM | TGI [41]: > 100 µM | TGI [42]: > 100 µM | TGI [43]: > 100 µM | TGI [44]: > 100 µM | TGI [45]: > 100 µM | TGI [46]: > 100 µM | TGI [47]: > 100 µM | TGI [48]: > 100 µM | TGI [49]: > 100 µM | TGI [50]: > 100 µM | TGI [51]: > 100 µM | TGI [52]: > 100 µM | TGI [53]: > 100 µM | TGI [54]: > 100 µM | TGI [55]: > 100 µM

COc1cc(OC)cc(C2C(C#N)=C(N)Oc3c2ccc2ccc(O)cc32)c1 (stereo not given)
GI50 [1]: < 0.01 µM | TGI [1]: 9.95 µM | GI50 [2]: < 0.01 µM | TGI [2]: 3.84 µM | GI50 [3]: < 0.01 µM | TGI [3]: 11.3 µM | GI50 [4]: < 0.01 µM | TGI [4]: 11.5 µM | GI50 [5]: < 0.01 µM | TGI [5]: 2.95 µM | GI50 [6]: < 0.01 µM | TGI [6]: 5.89 µM | GI50 [7]: < 0.01 µM | TGI [7]: 5.14 µM | GI50 [8]: < 0.01 µM | TGI [8]: < 0.01 µM | GI50 [9]: < 0.01 µM | TGI [9]: 3.28 µM | GI50 [10]: < 0.01 µM | TGI [10]: < 0.01 µM | GI50 [11]: 0.0521 µM | TGI [11]: 12 µM | GI50 [12]: < 0.01 µM | TGI [12]: 6.66 µM | GI50 [13]: < 0.01 µM | GI50 [14]: < 0.01 µM | TGI [14]: 2.67 µM | GI50 [15]: < 0.01 µM | TGI [15]: 1.63 µM | GI50 [16]: < 0.01 µM | TGI [16]: 13.9 µM | GI50 [17]: < 0.0112 µM | TGI [17]: 6.62 µM | GI50 [18]: < 0.01 µM | TGI [18]: < 0.01 µM | GI50 [19]: < 0.01 µM | TGI [19]: 11.4 µM | GI50 [20]: < 0.01 µM | TGI [20]: 27.1 µM | GI50 [21]: < 0.01 µM | TGI [21]: 6.87 µM | GI50 [22]: 3.36 µM | TGI [22]: 19.6 µM | TGI [23]: 15.6 µM | GI50 [24]: 0.088 µM | TGI [24]: 5.83 µM | GI50 [25]: < 0.01 µM | TGI [25]: 9.97 µM | GI50 [26]: < 0.01 µM | TGI [26]: < 0.01 µM | GI50 [27]: < 0.0166 µM | TGI [27]: 0.53 µM | GI50 [28]: < 0.01 µM | TGI [28]: 1.13 µM | GI50 [29]: < 0.01 µM | TGI [29]: 1.89 µM | GI50 [30]: 2.38 µM | TGI [30]: 32.5 µM | GI50 [31]: < 0.01 µM | TGI [31]: 14 µM | GI50 [56]: < 0.01 µM | TGI [56]: > 31.7 µM | GI50 [32]: < 0.01 µM | TGI [32]: 5.25 µM | GI50 [33]: < 0.01 µM | TGI [33]: 14.4 µM | GI50 [34]: < 0.01 µM | GI50 [35]: < 0.01 µM | TGI [35]: 5.75 µM | GI50 [36]: < 0.01 µM | TGI [36]: 4.74 µM | GI50 [38]: < 0.01 µM | TGI [38]: 6.08 µM | GI50 [39]: < 0.01 µM | TGI [39]: 6.54 µM | GI50 [40]: 0.587 µM | TGI [40]: 7.37 µM | GI50 [41]: 1.41 µM | TGI [41]: 4.42 µM | GI50 [42]: < 0.0125 µM | TGI [42]: 9.23 µM | GI50 [43]: < 0.01 µM | TGI [43]: 8.29 µM | GI50 [44]: < 0.01 µM | TGI [44]: 11.6 µM | GI50 [45]: < 0.01 µM | GI50 [46]: < 0.01 µM | TGI [46]: 6.58 µM | GI50 [57]: < 0.01 µM | TGI [57]: 2.64 µM | GI50 [47]: < 0.01 µM | TGI [47]: 1.93 µM | GI50 [48]: < 0.01 µM | TGI [48]: 12.8 µM | GI50 [49]: < 0.01 µM | TGI [49]: 3.88 µM | GI50 [58]: < 0.01 µM | TGI [58]: 4.49 µM | GI50 [50]: 2.29 µM | TGI [50]: 22.8 µM | GI50 [51]: < 0.01 µM | TGI [51]: < 0.01 µM | GI50 [52]: 0.155 µM | TGI [52]: 1.03 µM | GI50 [53]: < 0.01 µM | TGI [53]: 1.34 µM | GI50 [54]: < 0.01 µM | TGI [54]: 6.61 µM | GI50 [55]: 2.27 µM | TGI [55]: 9.97 µM
